One experiment has as its system HTT mRNA. The experiment in a line: RT-qPCR splicing assay, HTT canonical junction (CJ) and alternative junction (AJ) mRNA. In kind it is cell-based, human. The conditions noted are these: Homo sapiens; for AC50: increase in HTT alternative junction (AJ) mRNA, read-out: HTT AJ AC50. In a few lines: (§1)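 Following a 24-hour incubation of A673 or K562 cells with serially diluted compound (3-fold steps, highest final 10 uM), the lysates undergo cDNA synthesis plus qPCR. Canonical and alternative junctions are each quantified against PPIA, GAPDH or GUSB.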
For orientation: Quantitative PCR measures a nucleic acid by following its amplification.

In the next experiment the test system is MYB mRNA. Nature of the experiment: RT-qPCR splicing assay, MYB canonical junction (CJ) and alternative junction (AJ) mRNA. The experiment is classed as cell-based, human. The following applies: Homo sapiens; for AC50: increase in MYB alternative junction (AJ) mRNA, read-out: MYB AJ AC50. The essentials: as §1
For another experiment, the system named is Target C. Nature of the experiment: RT-qPCR splicing assay panel, Target C canonical junction (CJ) mRNA. In kind it is cell-based, human. The conditions noted are these: Homo sapiens; Table 5 panel; canonical junction qPCR; compound concentration having 50% response in CJ decrease; read-out: Target C IC50 (decrease in CJ mRNA levels). The essentials:
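Canonical exon-exon junction transcript levels measured by one-step RT-qPCR of cell lysates, normalized to a housekeeping gene (GAPDH, GUSB or PPIA). Cells used were A673 or K562, exposed for 24 h to compound in 11-point, 3-fold series from 10 uM, with final DMSO at or below 0.25%.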

For experiment [1], the system named is K562 (human chronic myelogenous leukemia) cells. The experiment in a line: Cell Titer Glo 2.0 cell viability assay. The conditions noted are these: Homo sapiens, K562, 72 h, K562 cells, 72 hours, Cell Titer Glo 2.0; read-out: K562 GI50. The experiment is classed as cell-based. (ATP-based viability assays read luminescence as a measure of living cells.)
[2] abbreviates: decrease in HTT canonical junction (CJ) mRNA, RT-qPCR, read-out: HTT CJ IC50.
Setting [3] is: Table 5 panel, canonical junction qPCR, compound concentration having 50% response in CJ decrease, read-out: HTT IC50 (decrease in CJ mRNA levels).
Setting [4] is: Table 5 panel, canonical junction qPCR, compound concentration having 50% response in CJ decrease, read-out: MYB IC50 (decrease in CJ mRNA levels).
[5] abbreviates: decrease in MYB canonical junction (CJ) mRNA, RT-qPCR, read-out: MYB CJ IC50.

The values below come from US20250332173A1, “COMPOUNDS AND METHODS FOR MODULATING NUCLEIC ACID SPLICING” (REMIX THERAPEUTICS INC., priority 2021, published 2025).

Read-outs that look alike come from different tables or passages of the source.

Broadly, the IC50 is the point on the concentration scale where inhibition reaches its midpoint. Broadly, the AC50 is the concentration at which the activity in the assay is half-maximal. The term GI50 denotes the concentration that inhibits growth by half. Turning to `Cc1cn2nc(-c3cc(O)c4c(=O)n(C5CCNC5)cnc4c3)cc(C)c2n1` (stereo not shown) [Compound 362, 7-{2,8-dimethylimidazo[1,2-b]pyridazin-6-yl}-5-hydroxy-3-(pyrrolidin-3-yl)quinazolin-4-one], the IC50 is greater than 10 µM in the experiment with HTT mRNA (setting [2]); greater than 10 µM in the experiment with HTT mRNA (setting [3]); 1 to 10 µM with MYB mRNA (setting [4]); 1 to 10 µM with MYB mRNA (setting [5]); greater than 10 µM in the experiment on Target C. The AC50 is greater than 10 µM in the experiment with HTT mRNA (RT-qPCR) and 1 to 10 µM in the experiment with MYB mRNA (RT-qPCR). Besides, the GI50 in experiment [1] was 1 to 10 µM.

For `CNc1cc(-c2cc(C#N)c3nc(C)cn3c2)cc2ncn(C3CCNCC3)c(=O)c12` [Compound 363, 2-methyl-6-[5-(methylamino)-4-oxo-3-(piperidin-4-yl)quinazolin-7-yl]imidazo[1,2-a]pyridine-8-carbonitrile], the IC50 in the experiment with HTT mRNA (setting [2]), with HTT mRNA (setting [3]), in the experiment with MYB mRNA (setting [4]), in the experiment with MYB mRNA (setting [5]) and with Target C was greater than 10 µM each time. Moreover, the AC50 in the experiment with HTT mRNA (RT-qPCR) and with MYB mRNA (RT-qPCR) was greater than 10 µM throughout. The GI50 in experiment [1] was 1 to 10 µM.
